Test results published in US8124794B2, “Method for the asymmetric synthesis of beta-lactone compounds” (Sanford-Burnham Medical Research Institute, priority 2006, dated 2012).
Like-named read-outs stand apart in the source and are kept apart here. Each block holds one compound with its values, some of them ahead of it.

Assays:
[1] = system: hydrolase expressed at 28 kDa; assay: FP-TAMRA labeling of serine hydrolases in mammary cell lysates; format: biochemical, human
Method: (§1) The serine hydrolase activity profiles of the prostate cell lines were measured using the fluorophosphonate probe fp-PEG-TAMRA using methods described previously (Liu et al., supra; Kidd et al., supra). Briefly, 40 μl of a 1 mg/ml solution of the soluble fractions of each cell lines were treated with 2 μM fp-PEG-TAMRA for one hour at ambient temperature. The labeling reactions were stopped by the addition of Laemmli buffer followed by boiling for 5 minutes. As a control for non-specific reaction of the probe, a duplicate sample was boiled for ten minutes prior to labeling with fp-PEG-TAMRA to denature all enzymatic activity. The labeled samples were resolved by 10% SDS-PAGE and visualized by scanning with a Hitachi flatbed scanner at 605 nm.
(§2) Ebelactone A and B stocks were made in DMSO. Orlistat was made in EtOH. Cell lysate were generated at 1 mg/ml as described above. Samples (40 μg) were incubated with inhibitors for twenty minutes prior to addition of fp-PEG-TAMRA. The final concentration of DMSO or EtOH in each reaction was 10%. The labeling reactions were stopped by the addition of Laemmli sample buffer and samples were resolved on 10% SDS-PAGE and visualized.
(§3) Labeling of serine hydrolases in the cell lysates with FP-TAMRA was challenged with each of the beta-lactones Inhibition experiments were performed under pre-steady state conditions, so that relative IC50 values could be compared. […] Tetrahydrolipstatin is selective for the hydrolase at 270 kDa that is expressed in breast cancer cell lines.

[2] = system: hydrolase migrating at 31 kDa; assay: as above; format: biochemical, human
Method: as §1, §2, §3

[3] = target: T1, recombinant thioesterase domain of fatty acid synthase (FAS TE) (Homo sapiens, UniProt P49327); assay: Fluorogenic assay (4-MUH substrate) for inhibition of recombinant FAS thioesterase domain; format: biochemical
T1 construct: Expression of the recombinant thioesterase domain of FAS was performed as described previously
Description: The synthetic fluorogenic substrate, 4-methylumbelliferyl heptanoate (4-MUH), was purchased from Sigma (St. Louis, Mo.). […] Results are the average of triplicate time points.

[4] = system: cellular fatty acid synthesis; assay: [14C]-acetate incorporation into fatty acids, prostate tumor cells; format: cell-based; details: level of orlistat inhibiting about 90% of activity-based labeling of FAS
Method: Studies were performed to determine the effect of orlistat on tumor cells. As a first step, we measured the ability to inhibit the activity of FAS in whole cells. […] . A concentration-dependent inhibition of labeling by FP-Bodipy was evident (FIG. 2; top panel), indicating enzyme inhibition. […] .
Inhibition of fatty acid synthesis by orlistat.

HUVEC = HUVEC proliferation by BrdU incorporation; format: cell-based, human; details: for IC50: Homo sapiens, HUVEC, read-out: concentration required for a half maximal effect on proliferation
Method: The effect of orlistat on HUVEC proliferation induced by several mitogenic stimuli was assessed by BrdU incorporation. Orlistat and mitogen were added simultaneously to serum-starved cells, and BrdU included during the period equivalent to the second round of the cell cycle after mitogen addition. Orlistat inhibited proliferation induced by complete endothelial medium (containing a undefined mixture of mitogens), by bFGF and by VEGF. […] Cell proliferation was measured by incorporation of BrdU. HUVEC were seeded in 96 well plates at a density of 2000 cells/well and cultured in Endothelial Growth medium (EGM; Clonetics, Walkerville, Md.) for 24 h at 37° C. Cells were serum-starved for further 24 h in Endothelial Basal Medium (EBM; Clonetics, Walkerville, Md.)+0.2% FCS. Medium was replaced with orlistat (40-0 uM) diluted in (A) EGM, (B) EBM+2% FCS+bFGF (5 ng/ml), (C) EBM+2% FCS+VEGF (20 ng/ml) or (D) EBM+0.2% FCS. Cells were incubated 48 h at 37 deg C., with BrdU present during the final 24 h. Medium was removed, the cell monolayers fixed, and BrdU incorporation measured by ELISA. Proliferation was expressed as a percentage of that measured in the absence of orlistat.

MDA-MB-435 cells = assay: Apoptosis by DNA fragmentation ELISA; details: Homo sapiens, MDA-MB-435, read-out: half-maximal apoptotic response
normal HMECs = assay: Apoptosis by DNA fragmentation ELISA
[5] = system: cellular fatty acid synthesis in MDA-MB-435 cells; assay: [14C]-acetate incorporation into cellular fatty acids, MDA-MB-435 cells; details: MDA-MB-435, 100 μM
Method: Cells were seeded at density of 2.5×10^4 cells/well in 24-well plates. Prior to the addition of orlistat, the wells were washed twice with PBS. Serum-free RPMI containing 300 μg/ml BSA and insulin/transferrin/selenium supplement was added to the wells, with or without orlistat. The cells were incubated for two hours prior to the addition of 1 μCi of [^14C]-acetate to label newly synthesized fatty acids. After two hours, the labeling medium was removed and the cells were washed with PBS/EDTA and trypsinized The cells pellets were washed twice more with PBS and fatty acids were extracted by the addition of an equal mixture of chloroform-methanol for 30 minutes. The extracted material was dried under a stream of N2 gas and extracted further with water-saturated butanol. The butanol was removed by drying under a stream of N2 gas and labeled fatty acids were detected by scintillation counting.
MDA-MB-435 cells were fed [^14C]-acetate as a precursor, and treated with orlistat.

[6] = recombinant FAS TE, 4-MUH substrate, 30 min pre-incubation at 37 deg.C, read-out: apparent Ki

T1 sequence (P49327 2207-2511 limits assumed): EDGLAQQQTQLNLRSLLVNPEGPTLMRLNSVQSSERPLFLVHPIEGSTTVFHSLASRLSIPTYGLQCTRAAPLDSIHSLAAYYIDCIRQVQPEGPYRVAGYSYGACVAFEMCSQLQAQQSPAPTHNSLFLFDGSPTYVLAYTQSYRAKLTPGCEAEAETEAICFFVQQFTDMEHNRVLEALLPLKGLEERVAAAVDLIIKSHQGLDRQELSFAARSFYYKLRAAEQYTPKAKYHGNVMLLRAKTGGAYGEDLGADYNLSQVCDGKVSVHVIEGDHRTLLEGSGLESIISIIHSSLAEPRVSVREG

SMILES: CC[C@@H]1C(=O)OC1[C@@H](C)C/C(C)=C/[C@@H](C)C(=O)[C@@H](C)[C@H](O)[C@@H](C)CC (some centres unmarked) [ebelactone B]
inhibition of labeling of 28 kDa hydrolase [1]: little effect
inhibition of labeling of 31 kDa hydrolase [2]: abolished labeling

Ki [3, 6]: 13.5 ± 7.8 µM
SMILES: O=C1O[C@H](CCC2CCCC2)[C@@H]1CC1CCCC1 [3b]

Ki [3, 6]: 2.5 ± 0.47 µM
SMILES: O=C1O[C@H](CCc2ccccc2)[C@@H]1Cc1ccccc1 [3d]

SMILES: CC[C@H](C)[C@@H](O)[C@H](C)C(=O)[C@H](C)/C=C(\C)C[C@H](C)C1OC(=O)[C@H]1C (some centres unmarked) [ebelactone A]
inhibition of labeling of 28 kDa hydrolase [1]: potent inhibitor
inhibition of labeling of 31 kDa hydrolase [2]: far less effective

SMILES: O=C1O[C@H](CCc2ccccc2)[C@H]1Cc1ccccc1 [trans-3d]
Ki [3]: 3.3 ± 0.2 µM

Ki [3, 6]: > 100 µM
SMILES: COC(=O)CC[C@H]1OC(=O)[C@H]1CC(=O)OC [3e]

Ki [3, 6]: 5.04 ± 2.1 µM
SMILES: O=C1O/C(=C\Cc2ccccc2)[C@@H]1Cc1ccccc1 [2d]

Ki [3, 6]: 23.1 ± 4.2 µM
SMILES: CCCCC[C@@H]1OC(=O)[C@@H]1CCCC (stereo in doubt) [3a, (3R,4S)-3-butyl-4-pentyloxetan-2-one]

Ki [3, 6]: 14.6 ± 4 µM
SMILES: CCCCC[C@@H]1OC(=O)[C@]1(C)CCCC [8a, (3R,4S)-3-butyl-3-methyl-4-pentyloxetan-2-one]

Ki [3, 6]: > 100 µM
SMILES: O=C1O/C(=C\CC2CCCCC2)[C@@H]1CC1CCCCC1 [2c]

Ki [3, 6]: 7.7 ± 0.43 µM
SMILES: O=C1O[C@H](CCC2CCCCC2)[C@@H]1CC1CCCCC1 [3c]

EC50 (MDA-MB-435 cells): ~4 µM
SMILES: CCCCCCCCCCC[C@@H](C[C@@H]1OC(=O)[C@H]1CCCCCC)OC(=O)[C@H](CC(C)C)NC=O [Orlistat, tetrahydrolipstatin]
reduction of total cellular fatty acid synthesis [4]: approximately 70%
IC50 (HUVEC; VEGF): 1.25 µM
IC50 (HUVEC; bFGF): 1 µM
IC50 (HUVEC; complete medium): 4 µM
concentration at which maximum inhibition of proliferation was achieved (HUVEC; complete medium, bFGF or VEGF): ≥ 10 µM
maximum inhibition of proliferation (HUVEC; stimulated with VEGF): ~80%
maximum inhibition of proliferation (HUVEC; stimulated with bFGF): ~90%
maximum inhibition of proliferation (HUVEC; stimulated with complete medium): ~90%
apoptotic response across a range of orlistat (normal HMECs): No effect
reduction of incorporation of [14C]-acetate into cellular fatty acids [5]: approximately 70%

Ki [3, 6]: 4.01 ± 1.9 µM
SMILES: CCCCC[C@H]1OC(=O)[C@@H]1CCCC [trans-3a, (3R,4R)-3-butyl-4-pentyloxetan-2-one]

Ki [3, 6]: 19.2 ± 0.36 µM
SMILES: CCCCC[C@@H]1OC(=O)[C@@]1(CCCC)Cc1ccccc1 [8b, (3S,4S)-3-benzyl-3-butyl-4-pentyloxetan-2-one]
